Laboratory results: patent publication US20150190346A1, “COMPOSITIONS AND METHODS FOR TREATMENT OF ABNORMAL CELL GROWTH” (VERASTEM, INC., priority 2014, published 2015)
Like-named read-outs stand apart in the source and are kept apart here.

Columns and labels:
[1] = Phase I study: safety and tolerability (adverse events) of VS-6063 tablets; format: in vivo, human (healthy male subjects)
Excerpt: In a Phase I, open-label, single center, single dose, partially randomized trial, the safety, bioavailability, and pharmacodynamics of prototype and reference formulations of VS-6063 were investigated in healthy male subjects. The study was comprised of four periods, each of which adhered to the same study design and involved 24 healthy male subjects between 40 and 65 years of age with a body mass index between 18.0 and 35.0 kg/m^2. Following a 28 day screening period, the subjects were admitted to the clinical unit the morning prior to dosing day (Day −1) and were dosed in the morning of Day 1. Subjects in Regimens A and B were administered VS-6063 following an overnight fast of about 10 hours, while subjects in Regimens C and D were administered VS-6063 within 30 minutes of starting a high fat breakfast, which was consumed within 25 minutes. Subjects remained on site until 36 hours after dosing. There was a minimum washout period of 7 days between the administration of each regimen. A follow-up phone call took place 7 to 10 days post final dose in periods 3 and 4 to ensure the ongoing well-being of the subjects.

[2] = male, beagle, dog, in vivo, po
Description: (§1) 4 groups of 1 male beagle dog per group received an oral gavage dose of VS-6063 in various formulations in a 4-session crossover design with a minimum 3-day washout period between dose sessions. In each session, VS-6063, VS-6063-25% SDD in Soluplus/PVP-A, VS-6063-25% physical mixture with Soluplus/PVP-A, and VS-6063-10% SDD in [sequence] L100-55 were administered at a target dose level of 10 mg API/kg. Blood samples (anticoagulant: K2EDTA) were scheduled for collection from each animal prior to dosing and at 0.25, 0.5, 1, 2, 4, 6, 8, 12 and 24 hours after dosing in each dose session. Blood samples were processed for plasma and the plasma was analyzed for VS-6063 by LC-MS/MS. Plasma concentration-time data for individual animals were analyzed to determine the pharmacokinetic profiles of VS-6063.
(§2) 4 groups of 1 male beagle dog per group received an oral gavage dose of VS-6063 in various formulations in a 4-session crossover design with a minimum 3-day washout period between dose sessions. In each session, VS-6063-25% physical mixture with Soluplus/PVP-A and VS-6063-25% SDD in Soluplus/PVP-A were administered at a target dose level of 20 mg API/kg and VS-6063-50% physical mixture with Soluplus/PVP-A was administered at target dose levels of 10 and 20 mg API/kg. Blood samples (anticoagulant: K2EDTA) were scheduled for collection from each animal prior to dosing and at 0.25, 0.5, 1, 2, 4, 6, 8, 12 and 24 hours after dosing in each dose session. Blood samples were processed for plasma and the plasma was analyzed for VS-6063 by LC-MS/MS. Plasma concentration-time data for individual animals were analyzed to determine the pharmacokinetic profiles of VS-6063.
(§3) VS-6063 was formulated (0.934 correction factor) at a target concentration of 10 mg API/mL in 0.5% (w/v) Methocel A4M in water with 0.1% (v/v) Tween 80. VS-6063-25% SDD in Soluplus/PVP-A was formulated (0.25 correction factor) at a target concentration of 10 mg API/mL in 0.5% (w/v) Methocel A4M in water. VS-6063-25% physical mixture with Soluplus/PVP-A was formulated (0.25 correction factor) at a target concentration of 10 mg API/mL in 0.5% (w/v) Methocel A4M in water. VS-6063-10% SDD in [sequence] L100-55 was formulated (0.10 correction factor) at a target concentration of 10 mg API/mL in 0.5% (w/v) Methocel A4M in water.
(§4) VS-6063-25% physical mixture with Soluplus/PVP-A and VS-6063-25% SDD in Soluplus/PVP-A were formulated (0.25 correction factor) at a target concentration of 10 mg API/mL in 0.5% (w/v) Methocel A4M in water. VS-6063-50% Physical mixture with Soluplus/PVP-A was formulated (0.50 correction factor) at target concentrations of 5 mg API/mL and 10 mg API/mL in 0.5% (w/v) Methocel A4M in water.
(§5) 4 groups of 1 male beagle dog per group received an oral gavage dose of VS-6063 in various formulations in a 4-session crossover design with a minimum 3-day washout period between dose sessions. In each session, VS-6063, VS-6063-25% SDD in Soluplus/PVP-A, VS-6063-25% physical mixture with Soluplus/PVP-A and VS-6063-10% SDD in [sequence] […] Food was returned at 4 hours post-dose.
(§6) Prior to dosing, the body weight of each animal was recorded. Doses (rounded to the nearest 0.01 mL) were calculated based on the pretreatment body weight (kg) and a dose volume of 1 mL/kg. Following the oral gavage dose, the gavage tube was flushed with 10 to 20 mL of water prior to removal of the tube. Dosing syringes were weighed immediately prior to and immediately after dosing each animal, and the quantity of formulation administered to each animal was determined from the difference in syringe weights.
(§7) 4 groups of 1 male beagle dog per group received an oral gavage dose of VS-6063 in various formulations in a 4-session crossover design with a minimum 3-day washout period between dose sessions.

[3] = in vivo; conditions: male, beagle, dog, po
Description: as §1, §2, §3, §4, §5, §6, §7

Mean AUCinf/Dose [2]: 312 ng·h/mL per mg/kg
Tmax [2]: 2.50 h
Tmax ([2]; 10 mg/kg): 4 h
Tmax ([3]; 10 mg/kg): 2 h
half-life ([3]; 10 mg/kg, t1/2): ~3.9 h
Tmax [3]: 2 to 4 h
SMILES: CNC(=O)c1ccc(Nc2ncc(C(F)(F)F)c(NCc3nccnc3N(C)S(C)(=O)=O)n2)cc1 [VS-6063]
incidence of AEs ([1]; Regimen A (200 mg reference, fasted)): 3 subjects
incidence of AEs ([1]; Regimen B (100 mg prototype, fasted)): 2 subjects
incidence of AEs ([1]; Regimen C (fed)): 5 subjects
incidence of AEs ([1]; Regimen D (fed)): 1 subject
tolerability ([1]; single dose, fed and fasted, reference and prototype formulations): well tolerated
serious or severe adverse events ([1]; whole study): no serious adverse events (AEs) or severe AEs
total AEs reported ([1]; whole study, reported by 9 subjects): 12 AEs
